For this experiment, the target named is T1, Tyrosine-protein phosphatase non-receptor type 1 (Homo sapiens, UniProt P18031).
T1 sequence (P18031 whole entry): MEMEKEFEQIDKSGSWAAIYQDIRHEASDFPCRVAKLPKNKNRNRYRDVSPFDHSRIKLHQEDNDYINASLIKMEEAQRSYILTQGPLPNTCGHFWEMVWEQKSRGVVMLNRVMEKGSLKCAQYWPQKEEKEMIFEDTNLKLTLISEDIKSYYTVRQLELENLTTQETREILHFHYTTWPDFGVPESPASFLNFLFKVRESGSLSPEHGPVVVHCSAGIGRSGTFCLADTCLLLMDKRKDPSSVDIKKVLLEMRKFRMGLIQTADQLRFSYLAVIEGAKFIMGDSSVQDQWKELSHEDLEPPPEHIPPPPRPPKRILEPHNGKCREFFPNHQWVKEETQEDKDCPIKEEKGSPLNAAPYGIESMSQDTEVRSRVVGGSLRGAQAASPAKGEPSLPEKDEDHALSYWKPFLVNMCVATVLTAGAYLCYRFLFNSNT
The experiment is described as follows: Inhibition of PTP1B.
As for `O=C(O)CSc1ccc(CN(Cc2ccc(-c3csnn3)cc2)S(=O)(=O)c2ccccc2)cc1`, the half-maximal inhibitory concentration (IC50) turned out to be 115 µM.

`COc1cc(CN(Cc2ccc(-c3csnn3)cc2)S(=O)(=O)c2ccc(OCC(=O)O)cc2)ccc1OC(F)(F)C(=O)O` showed an IC50 of more than 250 µM.

Regarding `Cc1cc(CN(Cc2ccc(-c3csnn3)cc2)S(=O)(=O)c2ccc(OCC(=O)O)cc2)cc(C)c1OC(Cc1ccccc1)C(=O)O` (centres undefined), the IC50 is more than 250 µM.

`Cc1cc(CN(Cc2ccc(-c3csnn3)cc2)S(=O)(=O)c2ccccc2)cc(C)c1OC(Cc1ccccc1)C(=O)O` (centres undefined) showed an IC50 of 38 µM. This counts as double-digit micromolar.

`O=C(O)COc1ccc(S(=O)(=O)N(Cc2ccc(-c3csnn3)cc2)Cc2ccc(C(F)(F)C(=O)O)cc2)cc1` registered an IC50 of 17.7 µM. Against the preceding compound, the IC50 is about 2.1-fold lower.

Compound `O=C(O)COc1ccc(CN(Cc2ccc(-c3csnn3)cc2)S(=O)(=O)c2ccc(OCC(=O)O)cc2)cc1` registered an IC50 of 59.6 µM.

For `O=C(O)C(=O)c1ccc(CN(Cc2ccc(-c3csnn3)cc2)S(=O)(=O)c2ccccc2)cc1`, it took 60.3 µM to reach half-maximal inhibition (IC50).

Compound `O=C(O)COc1ccc(S(=O)(=O)N(Cc2ccc(-c3csnn3)cc2)Cc2ccc(OCC(=O)O)c(C(=O)O)c2)cc1` returned an IC50 of 4.4 µM.

As for `O=P(O)(O)Cc1ccc(CN(Cc2ccc(-c3csnn3)cc2)S(=O)(=O)c2ccccc2)cc1`, half-maximal inhibition (IC50) was put at 123 µM. This IC50 is about 28-fold higher than that of the compound before.

Consider `O=C(O)COc1ccc(S(=O)(=O)N(Cc2ccc(-c3csnn3)cc2)Cc2cc(F)c(OCC(=O)O)c(F)c2)cc1`, for which the IC50 came to 19.9 µM.

On to `O=C(O)C[S+]([O-])c1ccc(CN(Cc2ccc(-c3csnn3)cc2)S(=O)(=O)c2ccccc2)cc1` (centres undefined), for which the IC50 was found to be 173 µM. This IC50 is about 8.7-fold higher than that of the compound before.

Compound `O=C(O)c1cc2cc(CN(Cc3ccc(-c4csnn4)cc3)S(=O)(=O)c3ccccc3)ccc2o1` had an IC50 of 63.6 µM.

For the compound `O=C(O)C(F)(F)Oc1ccc(CN(Cc2ccc(-c3csnn3)cc2)S(=O)(=O)c2ccccc2)cc1Br`, the IC50 turned out to be 52.1 µM.

Turning to `O=C(O)COc1ccc(S(=O)(=O)N(Cc2ccc(CP(=O)(O)O)cc2)Cc2ccc(-c3csnn3)cc2)cc1`, the IC50 was determined as 96.8 µM.

`O=C(O)COc1ccc(S(=O)(=O)N(Cc2ccc(OC(F)(F)C(=O)O)cc2)Cc2ccc(-c3csnn3)cc2)cc1` displayed an IC50 of 29.1 µM.

As for `O=C(O)COc1ccc(S(=O)(=O)N(Cc2ccc(-c3csnn3)cc2)Cc2cccc(OC(F)(F)C(=O)O)c2)cc1`, the IC50 was 230 µM.

The compound `O=C(O)C(F)(F)Oc1ccc(CN(Cc2ccc(-c3csnn3)cc2)S(=O)(=O)c2ccccc2)cc1` registered an IC50 of 97.1 µM.

The compound `Cc1cc(CN(Cc2ccc(-c3csnn3)cc2)S(=O)(=O)c2ccccc2)ccc1OCC(=O)O` showed an IC50 of 80.7 µM.

`O=C(O)COc1ccc(S(=O)(=O)N(Cc2ccc(-c3csnn3)cc2)Cc2ccc3oc(C(=O)O)cc3c2)cc1` gave an IC50 of 29.1 µM.

`O=C(O)COc1ccc(CN(Cc2ccc(-c3csnn3)cc2)S(=O)(=O)c2ccccc2)cc1`: the IC50 amounted to 54.1 µM.

In turn, `O=C(O)C(=O)Nc1ccc(CN(Cc2ccc(-c3csnn3)cc2)S(=O)(=O)c2ccccc2)cc1C(=O)O` came in with an IC50 of 10.1 µM.

As for `O=C(O)COc1ccc(S(=O)(=O)N(Cc2ccc(C(=O)C(=O)O)cc2)Cc2ccc(-c3csnn3)cc2)cc1`, the IC50 was found to be 27.6 µM.

Turning to `CC(C(=O)O)c1ccc(CN(Cc2ccc(-c3csnn3)cc2)S(=O)(=O)c2ccc(OCC(=O)O)cc2)cc1` (centres undefined), half-maximal inhibition (IC50) required 153 µM.

`O=C(O)COc1ccc(S(=O)(=O)N(Cc2ccc(-c3csnn3)cc2)Cc2ccc(OCC(=O)O)c(Cl)c2)cc1` had an IC50 of 57.7 µM.

Compound `O=C(O)COc1ccc(S(=O)(=O)N(Cc2ccc(-c3csnn3)cc2)Cc2ccc([S+]([O-])CC(=O)O)cc2)cc1` (centres undefined) came in with an IC50 of more than 250 µM.

In turn, `O=C(O)COc1c(F)cc(CN(Cc2ccc(-c3csnn3)cc2)S(=O)(=O)c2ccccc2)cc1F` yielded an IC50 of 137 µM.

On to `CC(C(=O)O)(C(=O)O)c1ccc(CN(Cc2ccc(-c3csnn3)cc2)S(=O)(=O)c2ccc(OCC(=O)O)cc2)cc1`, for which inhibition was half-maximal at 74.2 µM (IC50). Against the preceding compound, the IC50 is about 1.8-fold lower.

In turn, `O=C(O)COc1ccc(CN(Cc2ccc(-c3csnn3)cc2)S(=O)(=O)c2ccccc2)cc1Br` gave an IC50 of 7.9 µM.

Turning to `O=C(O)COc1ccc(CN(Cc2ccc(-c3csnn3)cc2)S(=O)(=O)c2ccccc2)cc1C(=O)O`, it took 12.2 µM to reach half-maximal inhibition (IC50).

`O=C(O)CS(=O)(=O)c1ccc(CN(Cc2ccc(-c3csnn3)cc2)S(=O)(=O)c2ccccc2)cc1` returned a half-inhibitory concentration (IC50) of 232 µM. This IC50 lies about 19-fold higher than the previous one.

In turn, `O=C(O)C(F)(F)Oc1cccc(CN(Cc2ccc(-c3csnn3)cc2)S(=O)(=O)c2ccccc2)c1` had an IC50 of 198 µM.

`O=C(O)C(F)(F)c1ccc(CN(Cc2ccc(-c3csnn3)cc2)S(=O)(=O)c2ccccc2)cc1` showed an IC50 of 51.8 µM.

In turn, `O=C(O)COc1ccc(S(=O)(=O)N(Cc2ccc(-c3csnn3)cc2)Cc2ccc(S(=O)(=O)CC(=O)O)cc2)cc1` returned an IC50 of more than 250 µM.

`COc1cc(CN(Cc2ccc(-c3csnn3)cc2)S(=O)(=O)c2ccccc2)ccc1OC(F)(F)C(=O)O` came in with a half-inhibitory concentration (IC50) of 237 µM.

`O=C(O)C(=O)N(c1ccccc1)c1ccc(CN(Cc2ccc(-c3csnn3)cc2)S(=O)(=O)c2ccccc2)cc1` came in with an IC50 of 235 µM.

In turn, `Cc1cc(CN(Cc2ccc(-c3csnn3)cc2)S(=O)(=O)c2ccc(OCC(=O)O)cc2)ccc1OCC(=O)O` came in with an IC50 of 76.2 µM.

Compound `O=C(O)COc1ccc(S(=O)(=O)N(Cc2ccc(-c3csnn3)cc2)Cc2ccc(OC(F)(F)C(=O)O)c(Br)c2)cc1` displayed an IC50 of 77.9 µM.

In turn, `O=C(O)COc1ccc(CN(Cc2ccc(-c3csnn3)cc2)S(=O)(=O)c2ccccc2)cc1Cl` displayed an IC50 of 53.8 µM.

`O=C(O)COc1ccc(S(=O)(=O)N(Cc2ccc(-c3csnn3)cc2)Cc2ccc(N(C(=O)C(=O)O)c3ccccc3)cc2)cc1` yielded an IC50 of more than 250 µM.

`O=C(O)COc1ccc(S(=O)(=O)N(Cc2ccc(-c3csnn3)cc2)Cc2ccc(NC(=O)C(=O)O)c(C(=O)O)c2)cc1` had an IC50 of 1.4 µM.

Take `O=C(O)C(=O)Nc1ccc(CN(Cc2ccc(-c3csnn3)cc2)S(=O)(=O)c2ccccc2)cc1Br`: inhibition was half-maximal at 13.8 µM (IC50).

Compound `O=C(O)COc1ccc(S(=O)(=O)N(Cc2ccc(SCC(=O)O)cc2)Cc2ccc(-c3csnn3)cc2)cc1` yielded an IC50 of 114 µM.

Compound `O=C(O)COc1ccc(S(=O)(=O)N(Cc2ccc(-c3csnn3)cc2)Cc2ccc(OCC(=O)O)c(Br)c2)cc1` gave an IC50 of 4.1 µM.

On to `O=P(O)(O)C(F)(F)c1ccc(CN(Cc2ccc(-c3csnn3)cc2)S(=O)(=O)c2ccccc2)cc1`, for which it took 0.2 µM to reach half-maximal inhibition (IC50).

In general, IC50 refers to the midpoint of a concentration-inhibition curve.

The values above are taken from ChEMBL document CHEMBL1144827, “PTP1B inhibitors: synthesis and evaluation of difluoro-methylenephosphonate bioisosteres on a sulfonamide scaffold” (Bioorg Med Chem Lett, 2008).
